Source: patent US20240294595A1, “GLYCOPEPTIDES AND USES THEREOF” (Arizona Board of Regents on Behalf of the University of …, priority 2013, published 2024)
pEC50: −log10 of the molar value. Where a SMILES comes first, the peptide text is derived from it. [ ]: non-standard residue; d: D form. The star is where a group is joined. βGlc = OC[C@H]1O[C@@H](*)[C@H](O)[C@@H](O)[C@@H]1O; Nle = CCCC[C@H](N)C(=O)O

How the values were obtained:
Type in all cases: cell-based
VPAC1 = biological target: T1, VPAC1 (Homo sapiens, UniProt P32241); test: VPAC1 agonist data (Table 2)
T1 sequence (P32241 31-457): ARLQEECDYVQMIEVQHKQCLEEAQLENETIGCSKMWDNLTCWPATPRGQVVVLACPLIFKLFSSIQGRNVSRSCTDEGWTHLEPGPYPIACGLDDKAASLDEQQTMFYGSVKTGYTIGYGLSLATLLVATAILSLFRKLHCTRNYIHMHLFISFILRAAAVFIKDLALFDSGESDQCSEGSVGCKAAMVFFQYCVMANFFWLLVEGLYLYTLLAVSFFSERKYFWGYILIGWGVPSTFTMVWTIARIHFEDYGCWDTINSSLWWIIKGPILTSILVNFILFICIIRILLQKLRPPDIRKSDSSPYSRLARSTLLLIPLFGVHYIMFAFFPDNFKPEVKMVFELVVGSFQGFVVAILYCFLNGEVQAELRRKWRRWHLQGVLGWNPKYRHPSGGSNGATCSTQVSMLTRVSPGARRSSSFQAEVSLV

VPAC2 = biological target: T2, VPAC2 (Homo sapiens, UniProt P41587); test: VPAC2 agonist data (Table 2)
T2 sequence (P41587 24-438): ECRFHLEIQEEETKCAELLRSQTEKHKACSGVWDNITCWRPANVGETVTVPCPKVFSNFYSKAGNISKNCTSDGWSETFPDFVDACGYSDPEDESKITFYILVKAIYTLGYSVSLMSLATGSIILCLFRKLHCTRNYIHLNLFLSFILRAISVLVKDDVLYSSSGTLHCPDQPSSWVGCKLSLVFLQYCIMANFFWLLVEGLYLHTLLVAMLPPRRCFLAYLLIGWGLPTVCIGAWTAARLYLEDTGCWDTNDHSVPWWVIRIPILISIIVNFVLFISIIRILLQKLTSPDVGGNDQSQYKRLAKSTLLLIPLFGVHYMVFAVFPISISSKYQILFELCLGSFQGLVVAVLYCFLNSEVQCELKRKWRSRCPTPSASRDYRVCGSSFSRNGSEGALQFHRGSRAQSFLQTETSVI

PAC1 = biological target: T3, PAC1 (Homo sapiens, UniProt P41586); test: PAC1 agonist data (Table 2); design: host or cells: CHO (clonal line PAC1-CHO)
T3 sequence (P41586 21-468): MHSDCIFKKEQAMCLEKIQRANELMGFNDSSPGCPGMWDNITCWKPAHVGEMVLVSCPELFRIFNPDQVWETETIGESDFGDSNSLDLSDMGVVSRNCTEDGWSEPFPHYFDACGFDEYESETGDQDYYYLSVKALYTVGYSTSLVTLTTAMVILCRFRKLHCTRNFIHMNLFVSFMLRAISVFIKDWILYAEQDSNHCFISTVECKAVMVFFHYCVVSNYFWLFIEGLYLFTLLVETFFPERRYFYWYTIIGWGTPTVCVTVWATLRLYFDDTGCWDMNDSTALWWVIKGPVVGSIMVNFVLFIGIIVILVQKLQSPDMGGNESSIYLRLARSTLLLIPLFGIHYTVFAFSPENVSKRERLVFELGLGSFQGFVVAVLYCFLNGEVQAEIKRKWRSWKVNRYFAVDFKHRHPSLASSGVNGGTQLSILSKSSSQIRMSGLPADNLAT
Procedure: A custom DNA clone of the human PAC1 gene with 3 hemagglutinin (HA) tags inserted 3′ to the signal peptide sequence (to avoid proteolytic loss) was obtained from Genecopoeia (Rockville, MD). The construct was electroporated into Chinese Hamster Ovary (CHO) cells, and selected for with 500 μg/mL of G418. The resulting population was screened for high expressing clones, and one such clone selected for further analysis. […] This cell line was used for all molecular pharmacology experiments. The cells were maintained in DMEM/F12 with 10% heat-inactivated FBS, 1× penicillin/streptomycin, and 500 μg/mL G418, at 37° C. and 5% CO2.
All molecular pharmacology experiments were carried out using a FLIPR Tetra from Molecular Devices (Sunnyvale, CA), set to image calcium flux using the manufacturer's recommended settings and protocols. The day before an experiment, the PAC1-CHO cells were split into 384 well black walled, clear bottom microplates, 10,000 cells per well. The cells were recovered overnight in growth medium (as above). The next day, the growth medium was replaced with Calcium 6 dye (Molecular Devices) using the manufacturer recommended buffer with 2.5 mM probenecid. The cells were incubated for 2 hours in the culture incubator, and removed during the last 15 minutes to allow equilibration to room temperature. Compound as indicated below was added to the cells using a 384 tip block, with real time monitoring before, during, and 15 minutes after compound addition. The resulting calcium flux was recorded, and the maximum-minimum response over the entire observation time calculated and reported as the mean±SEM (4 wells per point).
For agonist mode experiments, compound was added in an 11 point concentration curve, with a vehicle control (buffer). […] The response was analyzed using a 3 variable non-linear curve fit, and the EC50 (nM) and EMax (%) calculated and reported (Prism, GraphPad, La Jolla, CA).

SMILES: CCCC[C@H](NC(=O)[C@H](CCC(N)=O)NC(=O)[C@H](CCCCN)NC(=O)[C@H](CCCNC(=N)N)NC(=O)[C@H](Cc1ccc(O)cc1)NC(=O)[C@H](CCCNC(=N)N)NC(=O)[C@H](CO)NC(=O)[C@H](Cc1ccc(O)cc1)NC(=O)[C@H](CO)NC(=O)[C@H](CC(=O)O)NC(=O)[C@@H](NC(=O)[C@H](Cc1ccccc1)NC(=O)[C@@H](NC(=O)CNC(=O)[C@H](CC(=O)O)NC(=O)[C@@H](CO)NC(=O)[C@@H](N)Cc1c[nH]cn1)[C@@H](C)CC)[C@@H](C)O)C(=O)N[C@@H](C)C(=O)N[C@H](C(=O)N[C@@H](CCCCN)C(=O)N[C@@H](CCCCN)C(=O)N[C@@H](Cc1ccc(O)cc1)C(=O)N[C@@H](CC(C)C)C(=O)N[C@@H](C)C(=O)N[C@@H](C)C(=O)N[C@@H](CC(C)C)C(=O)N[C@@H](CO[C@@H]1O[C@H](CO)[C@@H](O)[C@H](O)[C@H]1O)C(=O)N[C@@H](CC(C)C)C(N)=O)C(C)C (H-H[dS]DGIFTDSYSRYRKQ[Nle]AVKKYLAALS(βGlc)L-NH2; C-terminus assumed)
- pEC50 (VPAC1): 8.23
- Emax (VPAC1): 93%
- pEC50 (VPAC2): < 5.60
- Emax (VPAC2): -95%
- pEC50 (PAC1): < 6.60
- Emax (PAC1): -79%

SMILES: CCCC[C@H](NC(=O)[C@H](CCC(N)=O)NC(=O)[C@H](CCCCN)NC(=O)[C@H](CCCNC(=N)N)NC(=O)[C@H](Cc1ccc(O)cc1)NC(=O)[C@H](CCCNC(=N)N)NC(=O)[C@H](CO)NC(=O)[C@H](Cc1ccc(O)cc1)NC(=O)[C@H](CO)NC(=O)[C@H](CC(=O)O)NC(=O)[C@@H](NC(=O)[C@H](Cc1ccccc1)NC(=O)[C@@H](NC(=O)CNC(=O)[C@H](CC(=O)O)NC(=O)[C@@H](CO)NC(=O)[C@@H](N)Cc1c[nH]cn1)[C@@H](C)CC)[C@@H](C)O)C(=O)N[C@@H](C)C(=O)N[C@H](C(=O)N[C@@H](CCCCN)C(=O)N[C@@H](CCCCN)C(=O)N[C@@H](Cc1ccc(O)cc1)C(=O)N[C@@H](CC(C)C)C(=O)N[C@@H](C)C(=O)N[C@@H](C)C(=O)N[C@H](C(=O)N[C@@H](CO[C@@H]1O[C@H](CO)[C@@H](O)[C@H](O)[C@H]1O)C(N)=O)C(C)C)C(C)C
- pEC50 (VPAC1): 8.32
- Emax (VPAC1): 90%
- pEC50 (VPAC2): 6.18
- Emax (VPAC2): 107%
- pEC50 (PAC1): 7.26
- Emax (PAC1): 86%

SMILES: CCCC[C@H](NC(=O)[C@H](CCC(N)=O)NC(=O)[C@H](CCCCN)NC(=O)[C@H](CCCNC(=N)N)NC(=O)[C@H](Cc1ccc(O)cc1)NC(=O)[C@H](CCCNC(=N)N)NC(=O)[C@H](CO)NC(=O)[C@H](Cc1ccc(O)cc1)NC(=O)[C@H](CO)NC(=O)[C@H](CC(=O)O)NC(=O)[C@@H](NC(=O)[C@H](Cc1ccccc1)NC(=O)[C@@H](NC(=O)CNC(=O)[C@H](CC(=O)O)NC(=O)[C@@H](CO)NC(=O)[C@@H](N)Cc1c[nH]cn1)[C@@H](C)CC)[C@@H](C)O)C(=O)N[C@@H](C)C(=O)N[C@H](C(=O)N[C@@H](CCCCN)C(=O)N[C@@H](CCCCN)C(=O)N[C@@H](Cc1ccc(O)cc1)C(=O)N[C@@H](CC(C)C)C(=O)N[C@@H](C)C(=O)N[C@@H](C)C(=O)N[C@H](C(=O)N[C@@H](CC(C)C)C(=O)N[C@@H](CO[C@@H]1O[C@H](CO)[C@@H](O)[C@H](O)[C@H]1O)C(N)=O)C(C)C)C(C)C
- pEC50 (VPAC1): 8.89
- Emax (VPAC1): 90%
- pEC50 (VPAC2): 6.62
- Emax (VPAC2): 104%
- pEC50 (PAC1): 7.59
- Emax (PAC1): 85%

SMILES: CCCC[C@H](NC(=O)[C@H](CCC(N)=O)NC(=O)[C@H](CCCCN)NC(=O)[C@H](CCCNC(=N)N)NC(=O)[C@H](Cc1ccc(O)cc1)NC(=O)[C@H](CCCNC(=N)N)NC(=O)[C@H](CO)NC(=O)[C@H](Cc1ccc(O)cc1)NC(=O)[C@H](CO)NC(=O)[C@H](CC(=O)O)NC(=O)[C@H](C)NC(=O)[C@H](Cc1ccccc1)NC(=O)[C@@H](NC(=O)CNC(=O)[C@H](CC(=O)O)NC(=O)[C@@H](CO)NC(=O)[C@@H](N)Cc1c[nH]cn1)[C@@H](C)CC)C(=O)N[C@@H](C)C(=O)N[C@H](C(=O)N[C@@H](CCCCN)C(=O)N[C@@H](CCCCN)C(=O)N[C@@H](Cc1ccc(O)cc1)C(=O)N[C@@H](CC(C)C)C(=O)N[C@@H](C)C(=O)N[C@@H](C)C(=O)N[C@H](C(=O)N[C@@H](CO[C@@H]1O[C@H](CO)[C@@H](O)[C@H](O)[C@H]1O)C(=O)N[C@@H](CC(C)C)C(N)=O)C(C)C)C(C)C (H-H[dS]DGIFADSYSRYRKQ[Nle]AVKKYLAAVS(βGlc)L-NH2; C-terminus assumed)
- pEC50 (VPAC1): 5.79
- Emax (VPAC1): 78%

SMILES: CCCC[C@H](NC(=O)[C@H](CCC(N)=O)NC(=O)[C@H](CCCCN)NC(=O)[C@H](CCCNC(=N)N)NC(=O)[C@H](Cc1ccc(O)cc1)NC(=O)[C@H](CCCNC(=N)N)NC(=O)[C@H](CO)NC(=O)[C@H](Cc1ccc(O)cc1)NC(=O)[C@H](CO)NC(=O)[C@H](CC(=O)O)NC(=O)[C@H](C)NC(=O)[C@H](Cc1ccccc1)NC(=O)[C@@H](NC(=O)CNC(=O)[C@H](CC(=O)O)NC(=O)[C@@H](CO)NC(=O)[C@@H](N)Cc1c[nH]cn1)[C@@H](C)CC)C(=O)N[C@@H](C)C(=O)N[C@H](C(=O)N[C@@H](CCCCN)C(=O)N[C@@H](CCCCN)C(=O)N[C@@H](Cc1ccc(O)cc1)C(=O)N[C@@H](CC(C)C)C(=O)N[C@@H](C)C(=O)N[C@@H](C)C(=O)N[C@H](C(=O)N[C@@H](CO[C@@H]1O[C@H](CO)[C@@H](O)[C@H](O)[C@H]1O)C(N)=O)C(C)C)C(C)C (H-H[dS]DGIFADSYSRYRKQ[Nle]AVKKYLAAVS(βGlc)-NH2; C-terminus assumed)
- pEC50 (VPAC1): 5.86
- Emax (VPAC1): 85%
